Assay results reported in PubChem BioAssay (NCI).
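Each compound was tested at five concentrations against cells in 96-well plates for 48 hours. Definition used: TGI = concentration required for complete inhibition of growth.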

Columns and labels:
Assay in all cases: growth of human tumour cells (NCI), 48 h
[1] = test system: MCF7 breast
[2] = test system: COLO 205 colon
[3] = test system: DU-145 prostate
[4] = test system: SW-620 colon
[5] = test system: U251 CNS
[6] = test system: IGROV1 ovarian
[7] = test system: SK-OV-3 ovarian
[8] = test system: OVCAR-5 ovarian
[9] = test system: UACC-62 melanoma
[10] = test system: TK-10 renal
[11] = test system: OVCAR-3 ovarian
[12] = test system: CAKI-1 renal
[13] = test system: SR leukemia
[14] = test system: NCI-H522 lung
[15] = test system: NCI-H226 lung
[16] = test system: SNB-75 CNS
[17] = test system: KM12 colon
[18] = test system: HCT-15 colon
[19] = test system: SK-MEL-28 melanoma
[20] = test system: MDA-N
[21] = test system: A498 renal
[22] = test system: MDA-MB-435
[23] = test system: K-562 leukemia
[24] = test system: HCT-116 colon
[25] = test system: HOP-92 NSCLC
[26] = test system: BT-549 breast
[27] = test system: SK-MEL-2 melanoma
[28] = test system: NCI-H23 lung
[29] = test system: RPMI-8226 leukemia
[30] = test system: HCC-2998 colon
[31] = test system: T-47D breast
[32] = test system: UACC-257 melanoma
[33] = test system: EKVX NSCLC
[34] = test system: SF-295 CNS
[35] = test system: SF-268 CNS
[36] = test system: SNB-19 CNS
[37] = test system: A549 NSCLC
[38] = test system: MOLT-4 leukemia
[39] = test system: HS 578T breast
[40] = test system: SF-539 CNS
[41] = test system: NCI-H460 lung
[42] = test system: PC-3 prostate
[43] = test system: LOX IMVI melanoma
[44] = test system: OVCAR-4 ovarian
[45] = test system: UO-31 renal
[46] = test system: M14 melanoma
[47] = test system: HOP-62 NSCLC
[48] = test system: SN12C renal
[49] = test system: MDA-MB-231 breast
[50] = test system: ACHN renal
[51] = test system: CCRF-CEM leukemia
[52] = test system: HT29 colon
[53] = test system: SK-MEL-5 melanoma
[54] = test system: MALME-3M melanoma
[55] = test system: HL-60(TB) leukemia
[56] = test system: NCI/ADR-RES ovarian
[57] = test system: 786-0 renal
[58] = test system: RXF 393 renal
[59] = test system: OVCAR-8 ovarian

Measured: TGI

Cc1cccc(O)c1-c1nnc(CCCCCCCCc2nnc(-c3c(C)cccc3O)n2N)n1N
> 42.1 µM: [38]
67.5 µM: [5]
> 31.6 µM: [2] | [25]
62 µM: [47]
97.2 µM: [14]
> 52.5 µM: [13]
> 58.1 µM: [16]
37.1 µM: [51]
> 56.1 µM: [44]
> 83.3 µM: [27]
> 59 µM: [10]
not listed: [56] | [57] | [58] | [59]
> 100 µM: all other assays above

CNC1C(O)C(NC)C2OC3(O)C(=O)CC(C)OC3OC2C1O (configuration not stated)
not listed: [21] | [54]
> 100 µM: all other assays above
